From patent US6365598B1, “Pyrroloquinolines for treatment of obesity” (Vernalis Research Limited, priority 1998, dated 2002) come the findings set out here.

Data set [1] addresses T1, 5-HT2c receptors (Homo sapiens, UniProt P28335).
T1 sequence (P28335 33-458): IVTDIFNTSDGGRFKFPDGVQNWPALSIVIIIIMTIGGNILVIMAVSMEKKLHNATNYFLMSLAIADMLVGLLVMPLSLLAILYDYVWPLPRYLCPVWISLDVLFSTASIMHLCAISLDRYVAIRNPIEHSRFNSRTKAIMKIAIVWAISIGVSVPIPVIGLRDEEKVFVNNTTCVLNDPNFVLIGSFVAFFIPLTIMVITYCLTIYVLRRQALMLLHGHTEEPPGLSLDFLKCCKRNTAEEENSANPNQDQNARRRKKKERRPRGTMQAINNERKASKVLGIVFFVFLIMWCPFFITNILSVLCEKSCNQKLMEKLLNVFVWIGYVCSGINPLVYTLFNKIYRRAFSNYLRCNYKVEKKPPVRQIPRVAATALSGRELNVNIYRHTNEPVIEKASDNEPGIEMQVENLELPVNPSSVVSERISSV
Briefly: Functional activity, FLIPR calcium assay, CHO cells expressing human 5-HT2C. In kind it is cell-based. On the set-up: expressed in transfected cells; host or cells: CHO cells. The following applies: for EC50: FLIPR, CHO cells, Fluo-3-AM, read-out: h5-HT2C EC50; for h5-HT2C Relative Efficacy (%): maximum fluorescent signal relative to 10 μM 5-HT (defined as 100%). The procedure:
(§1) The functional activity of compounds of formula (I) was assayed using a Fluorimetric Imaging Plate reader (FLIPR). CHO cells expressing the human 5-HT2C or human 5-HT2A receptors were counted and plated into standard 96 well microtitre plates on the day before testing to give a confluent monolayer. The cells were then dye loaded with the calcium sensitive dye, Fluo-3-AM. Unincorporated dye was removed using an automated cell washer to leave a total volume of 100 μL/well of assay buffer (Hanks balanced salt solution containing 20 mM Hepes and 2.5 mM probenecid). The drug (dissolved in 50 μL of the assay buffer) was added at a rate of 70 μL/sec to each well of the FLIPR 96 well plate during fluorescence measurements. The measurements were taken at 1 sec intervals and the maximum fluorescent signal was measured (approx 10-15 secs after drug addition) and compared with the response produced by 10 μM 5-HT (defined as 100%) to which it was expressed as a percentage response (relative efficacy). Dose response curves were constructed using Graphpad Prism (Graph Software Inc.).

For data set [2], the target named is T2, 5-HT2A receptors (Homo sapiens, UniProt P28223). Put plainly: Binding to 5-HT2A receptor, [125I]-DOI, CHO cell line. On the set-up: expressed in transfected cells; host or cells: CHO cell line. The following applies: read-out: Ki (2A). On the procedure:
(§2) 1. Binding to Serotonin Receptors
(§3) The binding of compounds of formula (I) to serotonin receptors was determined in vitro by standard methods. The preparations were investigated in accordance with the assays given hereinafter.
Method (c): For the binding to the 5-HT2A receptor the 5-HT2A receptors were radiolabeled with [^125I]-DOI. The affinity of the compounds for 5-HT2A receptors in a CHO cell line was determined according to the procedure of D. J. McKenna and S. J. Peroutka, J. Neurosci., 1989, 9, 3482-90.

Data set [3] has as its target T2, 5-HT2A receptors. Put plainly: Functional activity, FLIPR calcium assay, CHO cells expressing human 5-HT2A. In kind it is cell-based. Further details: expressed in transfected cells; host or cells: CHO cells. The following applies: for EC50: FLIPR, CHO cells, Fluo-3-AM, read-out: h5-HT2A EC50; for h5-HT2A Relative Efficacy (%): maximum fluorescent signal relative to 10 μM 5-HT (defined as 100%). On the procedure:
as §1

Another data set relates to food deprived animals. Briefly: Regulation of feeding behaviour: food consumption in food deprived animals. In kind it is in vivo. The following applies: 2 hours after a dose of 10 mg/kg s.c. The procedure:
4. Regulation of Feeding Behaviour
The in vivo activity of compounds of formula (I) on feeding behaviour was assayed by measuring food consumption in food deprived animals.
Test compounds were assessed following acute administration. Each study utilised a between-subjects design (typically n=8) and compared the effects of doses of the test agent to those of vehicle and a positive control.
The anorectic drug d-fenfluramine normally serves as a positive control. The route of drug administration, drug volume and injection-test-interval are dependent upon the compounds used. A palatable wet mash, made by adding powdered lab chow and water in a ratio of 1:2 and mixing to a smooth consistency, was presented in 120 ML glass jars for 60 minutes each day. Intake was measured by weighing before and after each session. Care was taken to collect all spillage. Animals were allowed to habituate to the wet mash meal for 10 days. After drug administration, animals were allowed to consume the wet mash. Food consumption was assayed at pre-determined time points (typically 1, 2 and 4 hours after administration). Food intake data were subjected to one-way analysis of variance (ANOVA) with drug as a between-subjects factor. […] All statistical analyses were performed using Statistica Software, Version 5.0 (Statsoft Inc.) and Microsoft Excel 7.0 (Microsoft Corp.).

In data set [4] the target is T1, 5-HT2c receptors. Briefly: Binding to 5-HT2C receptor, [3H]-5-HT, CHO cell line. On the set-up: expressed in transfected cells; host or cells: CHO cell line. The following applies: read-out: Ki (2C). The procedure: as §2, §3
Method (a): For the binding to the 5-HT2c, receptor the 5-HT2c receptors were radiolabeled with [^3H]-5-HT. The affinity of the compounds for 5-HT2c receptors in a CHO cell line was determined according to the procedure of D. Hoyer, G. Engel and H. O. Kalkman, European J. Pharmacol., 1985, 118,13-23.

The target of the next data set is T3, human 5-HT2B receptors (Homo sapiens, UniProt P41595).
T3 construct: expressed in transfected cells; host or cells: CHO cell line
T3 sequence (P41595 whole entry): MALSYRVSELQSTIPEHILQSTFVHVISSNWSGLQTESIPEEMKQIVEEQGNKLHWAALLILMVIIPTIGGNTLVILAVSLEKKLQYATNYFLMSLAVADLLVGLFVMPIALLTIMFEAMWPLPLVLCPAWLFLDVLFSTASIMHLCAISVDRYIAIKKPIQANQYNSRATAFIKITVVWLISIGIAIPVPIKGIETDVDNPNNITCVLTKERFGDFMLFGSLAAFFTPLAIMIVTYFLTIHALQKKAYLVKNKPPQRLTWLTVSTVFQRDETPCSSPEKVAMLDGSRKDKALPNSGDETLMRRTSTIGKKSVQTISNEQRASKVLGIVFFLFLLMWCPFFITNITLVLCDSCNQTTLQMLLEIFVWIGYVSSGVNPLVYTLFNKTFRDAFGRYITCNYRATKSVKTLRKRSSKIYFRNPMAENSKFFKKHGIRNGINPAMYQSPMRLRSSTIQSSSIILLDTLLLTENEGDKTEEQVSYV
Briefly: Binding to 5-HT2B receptor, [3H]-5-HT, CHO cell line. The following applies: read-out: Ki (2B). The procedure: as §2, §3
Method (b): For the binding to the 5-HT2B receptor the 5-HT2B receptors were radiolabeled with [^3H]-5-HT. The affinity of the compounds for human 5-HT2B receptors in a CHO cell line was determined according to the procedure of K. Schmuck, C. Ullmer, P. Engels and H. Lubbert, FEBS Lett., 1994, 342, 85-90.

Where a name gives a salt, the structure may show the parent alone.

T2 sequence (P28223 whole entry): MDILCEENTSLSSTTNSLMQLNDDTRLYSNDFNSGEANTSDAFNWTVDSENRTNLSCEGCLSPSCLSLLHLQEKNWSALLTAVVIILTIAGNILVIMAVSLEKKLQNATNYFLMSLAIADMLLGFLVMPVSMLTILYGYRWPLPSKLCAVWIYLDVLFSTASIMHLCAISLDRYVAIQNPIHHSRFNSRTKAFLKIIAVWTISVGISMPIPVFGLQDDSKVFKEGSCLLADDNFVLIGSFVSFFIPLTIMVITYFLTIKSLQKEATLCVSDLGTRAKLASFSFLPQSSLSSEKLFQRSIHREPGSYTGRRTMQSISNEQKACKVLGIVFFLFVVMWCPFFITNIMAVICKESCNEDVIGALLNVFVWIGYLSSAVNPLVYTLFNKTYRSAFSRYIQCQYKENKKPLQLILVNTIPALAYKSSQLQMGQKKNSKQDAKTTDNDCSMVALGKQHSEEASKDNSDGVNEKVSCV

Turning to `C[C@@H](N)Cn1ccc2ccc3ncccc3c21` [Example 2, (R)-1-(1H-Pyrrolo[2,3-f]quinolin-1-yl)-2-propylamine], the results for the EC50 at 5-HT2c receptors [1] and at 5-HT2A receptors [3] were 7 nM and 87 nM, respectively. Also, at 5-HT2c receptors [1], the “h5-HT2C Relative Efficacy (%)” value was 85%. Moreover, the Ki at 5-HT2A receptors [2] is 37 nM; at 5-HT2c receptors [4], 22 nM; on human 5-HT2B receptors, 5 nM. For the same compound, on 5-HT2A receptors [3], the “h5-HT2A Relative Efficacy (%)” value amounted to 96%. The “hypophagia (food consumption)” value with food deprived animals is listed as “significant hypophagia”.

Regarding `C[C@H](N)Cn1ccc2ccc3ccncc3c21` [Example 7, (S)-1-(1H-Pyrrolo[3,2-h]isoquinolin-1-yl)-2-propylamine fumarate], on 5-HT2c receptors [1], the EC50 was found to be 36 nM and the “h5-HT2C Relative Efficacy (%)” value came to 83%. Besides, at 5-HT2A receptors [3], the EC50 is 636 nM and the “h5-HT2A Relative Efficacy (%)” value stood at 61%.

In the case of `C[C@H](N)Cn1ccc2ccc3cccnc3c21` (as salt: fumarate) [Example 8, (S)-1-(1H-Pyrrolo[3,2-h]quinolin-1-yl)-2-propylamine hemifumarate], the melting point was 212 to 214 °C.

In the case of `C[C@H](N)Cn1ccc2ccc3ncccc3c21` (as salt: hydrochloride) [Example 1, (S)-1-(1H-Pyrrolo[2,3-f]quinolin-1-yl)-2-propylamine], the melting point was 222 to 224 °C.

The compound `C[C@H](N)Cn1ccc2ccc3ccncc3c21` (as salt: fumarate) [Example 7, (S)-1-(1H-Pyrrolo[3,2-h]isoquinolin-1-yl)-2-propylamine fumarate] came in with a melting point of 153 to 154 °C.

The compound `C[C@H](N)Cn1ccc2ccc3cnccc3c21` (as salt: fumarate) [Example 4, (S)-1-(1H-Pyrrolo[2,3-f]isoquinolin-1-yl)-2-propylamine fumarate] gave a melting point of 165 °C.

As for `C[C@@H](N)Cn1ccc2ccc3ncccc3c21` (as salt: hydrochloride) [Example 2, (R)-1-(1H-Pyrrolo[2,3-f]quinolin-1-yl)-2-propylamine], the melting point fell in the range of 223 to 225 °C.

`C[C@H](N)Cn1ccc2ccc3cnccc3c21` [Example 4, (S)-1-(1H-Pyrrolo[2,3-f]isoquinolin-1-yl)-2-propylamine fumarate]: the values for the EC50 on 5-HT2c receptors [1] and on 5-HT2A receptors [3] were 142 nM and 870 nM, respectively. Moreover, the “h5-HT2C Relative Efficacy (%)” value at 5-HT2c receptors [1] is on record as 89%. For the same compound, the Ki at 5-HT2A receptors [2] came out at 173 nM; at 5-HT2c receptors [4], 156 nM; at human 5-HT2B receptors, 84 nM. Further, the “h5-HT2A Relative Efficacy (%)” value at 5-HT2A receptors [3] came out at 54%.

Take `COc1nccc2c1ccc1ccn(C[C@H](C)N)c12` (as salt: fumarate): the melting point is 180 to 182 °C.

For the compound `C[C@H](N)Cn1ccc2cc(Cl)c3ncccc3c21` [Example 5, (S)-1-(5-Chloro-1H-pyrrolo[2,3-f]-quinolin-1-yl)-2-propylamine fumarate], on 5-HT2c receptors [1], the EC50 came to 5 nM and the “h5-HT2C Relative Efficacy (%)” value worked out at 86%. In addition, at 5-HT2A receptors [3], the EC50 came out at 52 nM and the “h5-HT2A Relative Efficacy (%)” value came out at 80%.

Take `C[C@H](N)Cn1ccc2ccc3ncccc3c21` [Example 1, (S)-1-(1H-Pyrrolo[2,3-f]quinolin-1-yl)-2-propylamine]: the EC50 stood at 12 nM on 5-HT2c receptors [1] and 360 nM on 5-HT2A receptors [3]. In addition, the “h5-HT2C Relative Efficacy (%)” value at 5-HT2c receptors [1] was 93%. Besides, the figures for the Ki on 5-HT2A receptors [2], at 5-HT2c receptors [4] and at human 5-HT2B receptors were 45 nM, 9 nM and 12 nM, respectively. For the same compound, on 5-HT2A receptors [3], the “h5-HT2A Relative Efficacy (%)” value is recorded as 100%. In the data set on food deprived animals, the “hypophagia (food consumption)” value is given as “significant hypophagia”.

For `C[C@H](N)Cn1ccc2cc(Cl)c3ncccc3c21` (as salt: fumarate) [Example 5, (S)-1-(5-Chloro-1H-pyrrolo[2,3-f]-quinolin-1-yl)-2-propylamine fumarate], the melting point was 228 to 229 °C.

With `CC(N)Cn1ccc2ccc3ncccc3c21` (racemic) [Example 3, (RS)-1-(1H-Pyrrolo[2,3-f]quinolin-1-yl)-2-propylamine hydrochloride], the Ki at 5-HT2A receptors [2] was 40 nM; at 5-HT2c receptors [4] it was 24 nM; on human 5-HT2B receptors, 9 nM.

On to `C[C@@H](Cn1ccc2ccc3ncccc3c21)NCc1ccc2c(c1)OCO2` [Example 9, (S)-[1-(1H-Pyrrolo[2,3-f]quinolin-1-yl)-2-propyl]-(3,4-methylenedioxybenzyl)amine bis-fumarate], for which, on 5-HT2c receptors [1], the EC50 stood at 85 nM and the “h5-HT2C Relative Efficacy (%)” value is recorded as 90%. Moreover, on 5-HT2A receptors [3], the EC50 came out at 1300 nM and the “h5-HT2A Relative Efficacy (%)” value is recorded as 65%.

In the case of `C[C@H](N)Cn1ccc2ccc3cccnc3c21` [Example 8, (S)-1-(1H-Pyrrolo[3,2-h]quinolin-1-yl)-2-propylamine hemifumarate], the EC50 came to 99 nM on 5-HT2c receptors [1] and 1070 nM at 5-HT2A receptors [3]. Also, at 5-HT2c receptors [1], the “h5-HT2C Relative Efficacy (%)” value was found to be 24%. The Ki on 5-HT2A receptors [2] worked out at 90 nM; at 5-HT2c receptors [4], 45 nM; at human 5-HT2B receptors, 88 nM. Further, the “h5-HT2A Relative Efficacy (%)” value at 5-HT2A receptors [3] is given as 31%.
